Test results published in PubChem BioAssay (NCI).
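GI50 = concentration required for 50% inhibition of growth. TGI denotes the concentration required for complete inhibition of growth.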

Tests used:
Assay in all cases: NCI anticancer screen, dose series, 384-well format
786-0 renal = system: 786-0 renal
A498 renal = system: A498 renal
A549 NSCLC = system: A549 NSCLC
ACHN renal = system: ACHN renal
BT-549 breast = system: BT-549 breast
CAKI-1 renal = system: CAKI-1 renal
CCRF-CEM leukemia = system: CCRF-CEM leukemia
COLO 205 colon = system: COLO 205 colon
EKVX NSCLC = system: EKVX NSCLC
HCC-2998 colon = system: HCC-2998 colon
HOP-62 NSCLC = system: HOP-62 NSCLC
HOP-92 NSCLC = system: HOP-92 NSCLC
HT29 colon = system: HT29 colon
IGROV1 ovarian = system: IGROV1 ovarian
K-562 leukemia = system: K-562 leukemia
KM12 colon = system: KM12 colon
LOX IMVI melanoma = system: LOX IMVI melanoma
M14 melanoma = system: M14 melanoma
MALME-3M melanoma = system: MALME-3M melanoma
MDA-MB-231 breast = system: MDA-MB-231 breast
MDA-MB-435 melanoma = system: MDA-MB-435 melanoma
MDA-MB-468 breast = system: MDA-MB-468 breast
NCI-H226 lung = system: NCI-H226 lung
NCI-H23 lung = system: NCI-H23 lung
NCI-H322M lung = system: NCI-H322M lung
NCI-H460 NSCLC = system: NCI-H460 NSCLC
NCI/ADR-RES ovarian = system: NCI/ADR-RES ovarian
OVCAR-3 ovarian = system: OVCAR-3 ovarian
OVCAR-4 ovarian = system: OVCAR-4 ovarian
OVCAR-5 ovarian = system: OVCAR-5 ovarian
PC-3 prostate = system: PC-3 prostate
RPMI-8226 leukemia = system: RPMI-8226 leukemia
RXF 393 renal = system: RXF 393 renal
SF-268 CNS = system: SF-268 CNS
SF-295 CNS = system: SF-295 CNS
SK-MEL-2 melanoma = system: SK-MEL-2 melanoma
SK-OV-3 ovarian = system: SK-OV-3 ovarian
SN12C renal = system: SN12C renal
SNB-19 CNS = system: SNB-19 CNS
SNB-75 CNS = system: SNB-75 CNS
SR leukemia = system: SR leukemia
SW-620 colon = system: SW-620 colon
T-47D breast = system: T-47D breast
U251 glioblastoma = system: U251 glioblastoma
UACC-257 melanoma = system: UACC-257 melanoma
UACC-62 melanoma = system: UACC-62 melanoma
UO-31 renal = system: UO-31 renal

Question: Which GI50 ([…]-0 renal) does the source give for `CS(=O)(=O)c1ccc(C(=O)Nc2ccc(Cl)c(-c3ccccn3)c2)c(Cl)c1` here?
Answer: The GI50 was 22.8 µM.

Question: And the TGI (786-0 renal)?
Answer: Its TGI is 58.3 µM.

Question: What about the GI50 (A498 renal) of the same molecule?
Answer: Its GI50 is 31.9 µM.

Question: What about the TGI (A498 renal) of the same molecule?
Answer: Its TGI is > 71.7 µM.

Question: And the GI50 (A549 NSCLC)?
Answer: Its GI50 is 41.1 µM.

Question: What about the TGI (A549 NSCLC) of the same molecule?
Answer: Its TGI is > 100 µM.

Question: And the GI50 (ACHN renal)?
Answer: Its GI50 is 35.6 µM.

Question: And the TGI (ACHN renal)?
Answer: The TGI was > 81.7 µM.

Question: And the GI50 (BT-549 breast)?
Answer: Its GI50 is 25.1 µM.

Question: And the TGI (BT-549 breast)?
Answer: Its TGI is 76.9 µM.

Question: And the GI50 (CAKI-1 renal)?
Answer: Its GI50 is 36.6 µM.

Question: And the TGI (CAKI-1 renal)?
Answer: Its TGI is > 83.8 µM.

Question: What about the GI50 (CCRF-CEM leukemia) of the same molecule?
Answer: The GI50 was 19.9 µM.

Question: And the TGI (CCRF-CEM leukemia)?
Answer: The TGI was 50 µM.

Question: What about the GI50 (COLO 205 colon) of the same molecule?
Answer: The GI50 was 40.3 µM.

Question: And the TGI (COLO 205 colon)?
Answer: Its TGI is > 100 µM.

Question: What about the GI50 (EKVX NSCLC) of the same molecule?
Answer: The GI50 was 48.3 µM.

Question: And the TGI (EKVX NSCLC)?
Answer: Its TGI is > 90.5 µM.

Question: What about the GI50 (HCC-2998 colon) of the same molecule?
Answer: Its GI50 is 24.6 µM.

Question: And the TGI (HCC-2998 colon)?
Answer: Its TGI is 56.8 µM.

Question: What about the GI50 (HOP-62 NSCLC) of the same molecule?
Answer: Its GI50 is 61.9 µM.

Question: What about the TGI (HOP-62 NSCLC) of the same molecule?
Answer: The TGI was > 100 µM.

Question: And the GI50 (HOP-92 NSCLC)?
Answer: The GI50 was 31.2 µM.

Question: And the TGI (HOP-92 NSCLC)?
Answer: Its TGI is 79 µM.

Question: And the GI50 (HT29 colon)?
Answer: The GI50 was 18.3 µM.

Question: And the TGI (HT29 colon)?
Answer: Its TGI is 36.7 µM.

Question: And the GI50 (IGROV1 ovarian)?
Answer: Its GI50 is 56.6 µM.

Question: And the TGI (IGROV1 ovarian)?
Answer: The TGI was > 100 µM.

Question: What about the GI50 (K-562 leukemia) of the same molecule?
Answer: Its GI50 is 16.3 µM.

Question: What about the TGI (K-562 leukemia) of the same molecule?
Answer: Its TGI is 31.1 µM.

Question: What about the GI50 (KM12 colon) of the same molecule?
Answer: Its GI50 is 17.9 µM.

Question: What about the TGI (KM12 colon) of the same molecule?
Answer: The TGI was > 56.7 µM.

Question: What about the GI50 (LOX IMVI melanoma) of the same molecule?
Answer: The GI50 was 47.2 µM.

Question: What about the TGI (LOX IMVI melanoma) of the same molecule?
Answer: Its TGI is > 100 µM.

Question: And the GI50 (M14 melanoma)?
Answer: Its GI50 is 47.5 µM.

Question: And the TGI (M14 melanoma)?
Answer: Its TGI is > 100 µM.

Question: And the GI50 (MALME-3M melanoma)?
Answer: The GI50 was 19 µM.

Question: What about the TGI (MALME-3M melanoma) of the same molecule?
Answer: Its TGI is 61.2 µM.

Question: What about the GI50 (MDA-MB-231 breast) of the same molecule?
Answer: The GI50 was > 65.9 µM.

Question: What about the TGI (MDA-MB-231 breast) of the same molecule?
Answer: Its TGI is > 100 µM.

Question: And the GI50 (MDA-MB-435 melanoma)?
Answer: The GI50 was > 62 µM.

Question: And the TGI (MDA-MB-435 melanoma)?
Answer: Its TGI is > 100 µM.

Question: And the GI50 (MDA-MB-468 breast)?
Answer: The GI50 was 22.2 µM.

Question: What about the TGI (MDA-MB-468 breast) of the same molecule?
Answer: Its TGI is 46.7 µM.

Question: And the GI50 (NCI-H226 lung)?
Answer: Its GI50 is 22.9 µM.

Question: What about the TGI (NCI-H226 lung) of the same molecule?
Answer: The TGI was 64.3 µM.

Question: And the GI50 (NCI-H23 lung)?
Answer: Its GI50 is > 61.2 µM.

Question: What about the TGI (NCI-H23 lung) of the same molecule?
Answer: The TGI was > 100 µM.

Question: What about the GI50 (NCI-H322M lung) of the same molecule?
Answer: The GI50 was 67.2 µM.

Question: What about the TGI (NCI-H322M lung) of the same molecule?
Answer: Its TGI is > 100 µM.

Question: And the GI50 (NCI-H460 NSCLC)?
Answer: Its GI50 is 30.8 µM.

Question: And the TGI (NCI-H460 NSCLC)?
Answer: Its TGI is > 70.3 µM.

Question: What about the GI50 (NCI/ADR-RES ovarian) of the same molecule?
Answer: The GI50 was 25.3 µM.

Question: And the TGI (NCI/ADR-RES ovarian)?
Answer: The TGI was 71.7 µM.

Question: What about the GI50 (OVCAR-3 ovarian) of the same molecule?
Answer: Its GI50 is 35.9 µM.

Question: What about the TGI (OVCAR-3 ovarian) of the same molecule?
Answer: The TGI was > 83 µM.

Question: What about the GI50 (OVCAR-4 ovarian) of the same molecule?
Answer: The GI50 was 32.6 µM.

Question: And the TGI (OVCAR-4 ovarian)?
Answer: Its TGI is > 84.5 µM.

Question: And the GI50 (OVCAR-5 ovarian)?
Answer: Its GI50 is 54.2 µM.

Question: What about the TGI (OVCAR-5 ovarian) of the same molecule?
Answer: The TGI was > 100 µM.

Question: What about the GI50 (PC-3 prostate) of the same molecule?
Answer: Its GI50 is 55 µM.

Question: And the TGI (PC-3 prostate)?
Answer: The TGI was > 100 µM.

Question: What about the GI50 (RPMI-8226 leukemia) of the same molecule?
Answer: Its GI50 is 25 µM.

Question: And the TGI (RPMI-8226 leukemia)?
Answer: Its TGI is 61.5 µM.

Question: What about the GI50 (RXF 393 renal) of the same molecule?
Answer: The GI50 was 22.7 µM.

Question: And the TGI (RXF 393 renal)?
Answer: The TGI was 51.9 µM.

Question: And the GI50 (SF-268 CNS)?
Answer: Its GI50 is 45 µM.

Question: And the TGI (SF-268 CNS)?
Answer: Its TGI is > 100 µM.

Question: And the GI50 (SF-295 CNS)?
Answer: The GI50 was 33 µM.

Question: What about the TGI (SF-295 CNS) of the same molecule?
Answer: The TGI was > 67.7 µM.

Question: What about the GI50 (SK-MEL-2 melanoma) of the same molecule?
Answer: The GI50 was 33.8 µM.

Question: And the TGI (SK-MEL-2 melanoma)?
Answer: Its TGI is > 100 µM.

Question: What about the GI50 (SK-OV-3 ovarian) of the same molecule?
Answer: Its GI50 is > 72.5 µM.

Question: And the TGI (SK-OV-3 ovarian)?
Answer: Its TGI is > 100 µM.

Question: And the GI50 (SN12C renal)?
Answer: Its GI50 is > 68.8 µM.

Question: What about the TGI (SN12C renal) of the same molecule?
Answer: Its TGI is > 100 µM.

Question: What about the GI50 (SNB-19 CNS) of the same molecule?
Answer: The GI50 was > 64.8 µM.

Question: And the TGI (SNB-19 CNS)?
Answer: The TGI was > 100 µM.

Question: And the GI50 (SNB-75 CNS)?
Answer: Its GI50 is 32.3 µM.

Question: And the TGI (SNB-75 CNS)?
Answer: Its TGI is 80.3 µM.

Question: What about the GI50 (SR leukemia) of the same molecule?
Answer: The GI50 was 29 µM.

Question: And the TGI (SR leukemia)?
Answer: The TGI was 50.6 µM.

Question: And the GI50 (SW-620 colon)?
Answer: Its GI50 is > 64 µM.

Question: And the TGI (SW-620 colon)?
Answer: Its TGI is > 100 µM.

Question: What about the GI50 (T-47D breast) of the same molecule?
Answer: The GI50 was 21.4 µM.

Question: And the TGI (T-47D breast)?
Answer: Its TGI is 59.7 µM.

Question: What about the GI50 (U251 glioblastoma) of the same molecule?
Answer: Its GI50 is 49.5 µM.

Question: And the TGI (U251 glioblastoma)?
Answer: Its TGI is > 100 µM.

Question: And the GI50 (UACC-257 melanoma)?
Answer: The GI50 was 49.6 µM.

Question: And the TGI (UACC-257 melanoma)?
Answer: Its TGI is > 89.7 µM.

Question: And the GI50 (UACC-62 melanoma)?
Answer: Its GI50 is 44.4 µM.

Question: And the TGI (UACC-62 melanoma)?
Answer: Its TGI is > 79.3 µM.

Question: What about the GI50 (UO-31 renal) of the same molecule?
Answer: Its GI50 is 35.4 µM.

Question: And the TGI (UO-31 renal)?
Answer: The TGI was > 80.3 µM.
